Key:
Type in all cases: biochemical
[1] = biological target: T1, PDE4B2: full-length human PDE4B2 isozyme (Homo sapiens, UniProt Q07343); experiment: PDE4 IC50 determination by Scintillation Proximity Assay (SPA), full-length PDE4B2; conditions: cell lysate, [3H]cAMP SPA
T1 construct: made in house; host or cells: baculovirus infected insect cells (pFastBacHT)
Method: (§1) The enzyme was not purified from the cell lysates, so enzyme concentrations were not determined. Enzyme was stored in 50% glycerol at −20°.
(§2) IC50s were determined by Scintillation Proximity Assay (SPA). The principle of the assay is based on the fact that cAMP, the PDE4 substrate, binds weakly to Yittrium Silicate SPA beads, whereas AMP, the product of PDE4 hydrolysis binds strongly. Thus, the extent of PDE4 hydrolysis of a sample of [^3H]cAMP can be measured because only the [^3H]AMP produced by PDE4 hydrolysis will bind to the SPA beads and produce a scintillation signal.
(§3) In addition to the compound dilutions, each assay plate contained control wells with 1 μl of DMSO (to define 0% enzyme inhibition) or 1 μl of 200 μM roflumilast (to define 100% enzyme inhibition). Using a Beckman FX robot, 10 μl of [^3H] cAMP (Amersham TRK559) at […] in assay buffer (50 mM Tris, pH 7.5; 8.3 mM MgCl; 1.7 mM EGTA; 0.01% BSA) was transferred to each assay well. Next, 10 μl of PDE4 enzyme in assay buffer was added and the plates were shaken for 30 s. at 1000 rpm to start the cAMP hydrolysis reaction. The concentrations of enzyme used were: PDE4B, 80 ng/ml; PDE4D, 4 ng/ml; PDE4B2, 2.5 μl of 50% glycerol stock/ml; PDE4D5 0.083 μl of 50% glycerol stock/ml. Assay plates were covered and incubated for 30 min. at 30° C. Reactions were stopped by robotic addition of 10 μl of 5 mg/ml SPA beads (Amersham RPNQ0013) in 18 mM ZnSO4. The assay plates were covered with clear plastic film, centrifuged for 1 min. at 1000 RPM to settle the SPA beads, and counted using a Wallac TriLux scintillation counter. IC50's were calculated from the raw assay data by non-linear regression curve fitting using the Assay Explorer software package from MDL.

[2] = biological target: T2, PDE4D5: full-length human PDE4D5 isozyme (Homo sapiens, UniProt Q08499); experiment: PDE4 IC50 determination by Scintillation Proximity Assay (SPA), full-length PDE4D5; conditions: cell lysate, [3H]cAMP SPA
T2 construct: made in house; host or cells: baculovirus infected insect cells (pFastBacHT)
T2 sequence (Q08499 with tags, fused parts or gaps isoform Q08499-6): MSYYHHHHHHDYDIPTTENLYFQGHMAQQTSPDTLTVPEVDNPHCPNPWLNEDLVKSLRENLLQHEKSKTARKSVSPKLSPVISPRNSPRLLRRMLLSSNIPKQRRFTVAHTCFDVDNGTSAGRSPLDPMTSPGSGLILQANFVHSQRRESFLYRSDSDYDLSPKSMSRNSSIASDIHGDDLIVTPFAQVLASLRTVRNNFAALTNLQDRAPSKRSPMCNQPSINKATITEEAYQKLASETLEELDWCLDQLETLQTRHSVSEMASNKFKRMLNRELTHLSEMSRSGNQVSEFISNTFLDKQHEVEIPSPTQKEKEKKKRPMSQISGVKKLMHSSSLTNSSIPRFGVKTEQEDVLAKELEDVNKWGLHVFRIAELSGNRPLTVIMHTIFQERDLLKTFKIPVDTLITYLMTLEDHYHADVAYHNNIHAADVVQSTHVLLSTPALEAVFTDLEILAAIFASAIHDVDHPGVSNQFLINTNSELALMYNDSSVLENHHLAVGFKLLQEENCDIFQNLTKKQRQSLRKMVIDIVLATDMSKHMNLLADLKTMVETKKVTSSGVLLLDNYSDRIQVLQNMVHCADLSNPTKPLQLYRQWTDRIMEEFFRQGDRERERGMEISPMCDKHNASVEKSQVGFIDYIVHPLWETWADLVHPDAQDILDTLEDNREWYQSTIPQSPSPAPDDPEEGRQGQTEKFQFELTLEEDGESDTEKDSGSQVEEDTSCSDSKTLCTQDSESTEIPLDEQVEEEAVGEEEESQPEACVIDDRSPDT
Method: as §1, §2, §3

[3] = biological target: T3, PDE4B: catalytic domain of human PDE4B from S152-S528 (Homo sapiens, UniProt Q07343); experiment: PDE4 IC50 determination by Scintillation Proximity Assay (SPA), PDE4B catalytic domain; conditions: [3H]cAMP SPA, 30 min at 30° C.
T3 construct: The catalytic domain of human PDE4B from S152-S528; His6 (N, cleaved yes); thrombin cleavage site (N, cleaved yes); made in house; host or cells: E. coli BL21 (DE3) RIL
T3 sequence (Q07343 324-700): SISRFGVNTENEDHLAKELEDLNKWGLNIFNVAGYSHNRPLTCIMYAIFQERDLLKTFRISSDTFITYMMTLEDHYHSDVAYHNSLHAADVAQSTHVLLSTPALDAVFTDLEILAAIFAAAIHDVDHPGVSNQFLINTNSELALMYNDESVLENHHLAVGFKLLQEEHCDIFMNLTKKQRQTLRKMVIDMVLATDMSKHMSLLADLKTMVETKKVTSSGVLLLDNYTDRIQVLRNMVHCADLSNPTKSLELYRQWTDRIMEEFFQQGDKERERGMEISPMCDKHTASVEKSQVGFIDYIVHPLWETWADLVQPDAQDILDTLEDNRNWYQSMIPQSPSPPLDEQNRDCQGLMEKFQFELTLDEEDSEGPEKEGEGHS
Method: as §2
Enzyme was stored in 50% glycerol at −20°.
as §3

T1 sequence (Q07343 with tags, fused parts or gaps isoform Q07343-2): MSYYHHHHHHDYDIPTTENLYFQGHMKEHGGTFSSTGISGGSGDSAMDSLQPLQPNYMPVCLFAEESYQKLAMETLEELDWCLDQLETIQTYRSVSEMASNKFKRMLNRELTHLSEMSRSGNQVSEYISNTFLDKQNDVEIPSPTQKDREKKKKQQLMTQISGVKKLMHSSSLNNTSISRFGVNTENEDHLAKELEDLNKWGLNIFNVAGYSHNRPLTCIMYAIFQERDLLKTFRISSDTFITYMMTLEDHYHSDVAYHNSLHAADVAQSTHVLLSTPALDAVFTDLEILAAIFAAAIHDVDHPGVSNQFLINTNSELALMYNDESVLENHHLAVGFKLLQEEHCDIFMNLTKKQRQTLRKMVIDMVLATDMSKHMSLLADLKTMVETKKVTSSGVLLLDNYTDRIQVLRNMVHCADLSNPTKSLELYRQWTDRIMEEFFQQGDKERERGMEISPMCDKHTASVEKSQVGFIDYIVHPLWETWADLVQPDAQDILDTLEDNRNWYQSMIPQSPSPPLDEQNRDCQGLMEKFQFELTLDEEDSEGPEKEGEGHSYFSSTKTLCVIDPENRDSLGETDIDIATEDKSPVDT

Row | SMILES | IC50 [1] [µM] | IC50 [2] [µM] | IC50 [3] [µM]
1 | c1cnc2[nH]cc(-c3ccc4c(c3)OCO4)c2c1 [Compound 90, 3-Benzo[1,3]dioxol-5-yl-1H-pyrrolo[2,3-b]pyridine] | > 10 | > 10 | > 10
2 | Cc1[nH]c2ncccc2c1-c1ccc2c(c1)OCO2 [Compound 142, 3-Benzo[1,3]dioxol-5-yl-2-methyl-1H-pyrrolo[2,3-b]pyridine] | > 10 | > 10 | < 10
3 | COc1ccc(-c2cn(C(=O)Nc3cccc(F)c3)c3ncccc23)cc1OC [Compound 35, 3-(3,4-Dimethoxy-phenyl)-pyrrolo[2,3-b]pyridine-1-carboxylic acid(3-fluoro-phenyl)-amide] | > 10 | > 10 | > 10
4 | COc1ccc(-c2cn(C(=O)[C@@H]3C[C@H]3c3ccccc3)c3ncccc23)cc1OC [Compound 108, [3-(3,4-Dimethoxy-phenyl)-pyrrolo[2,3-b]pyridin-1-yl]-((1R,2R)-2-phenyl-trans-cyclopropyl)-methanone] | < 10 | < 10 | –
5 | COc1ccc(-c2c[nH]c3ncccc23)cc1OCc1ccccc1 [Compound 89, 3-(3-Benzyloxy-4-methoxy-phenyl)-1H-pyrrolo[2,3-b]pyridine] | < 10 | < 10 | –
6 | COc1ccc(-c2cn(C(=O)Nc3ccc(F)c([N+](=O)[O-])c3)c3ncccc23)cc1OC1CCCC1 [Compound 98, 3-(3-Cyclopentyloxy-4-methoxy-phenyl)-pyrrolo[2,3-b]pyridine-1-carboxylic acid (3-nitro-4-fluoro-phenyl)-amide] | < 10 | < 10 | –
7 | COc1ccc(-c2cn(C(=O)c3ccc(Cl)nc3)c3ncccc23)cc1OC [Compound 107, (6-Chloro-pyridin-3-yl)-[3-(3,4-dimethoxy-phenyl)-pyrrolo[2,3-b]pyridin-1-yl]-methanone] | < 10 | < 10 | –
8 | COc1ccc(-c2cn(S(=O)(=O)c3ccccc3)c3ccccc23)cc1OC [Compound 19, 1-benzenesulfonyl-3-(3,4-dimethoxy-phenyl)-1H-indole] | < 10 | < 10 | < 10
9 | COc1ccc(-c2cn(C(=O)c3ccccc3Oc3ccccc3)c3ncccc23)cc1OC [Compound 118, [3-(3,4-Dimethoxy-phenyl)-pyrrolo[2,3-b]pyridin-1-yl]-(2-phenoxy-phenyl)-methanone] | < 10 | < 10 | –
10 | CCOc1ccc(C(=O)n2cc(-c3ccc(OC)c(OC)c3)c3cccnc32)c(OCC)c1 [Compound 111, (2,4-Diethoxy-phenyl)-[3-(3,4-dimethoxy-phenyl)-pyrrolo[2,3-b]pyridin-1-yl]-methanone] | < 10 | < 10 | < 10
11 | COc1ccc(-c2cn(S(=O)(=O)c3cccc4cc(C)cnc34)c3ncccc23)cc1OC [Compound 13, 8-[3-(3,4-Dimethoxy-phenyl)-pyrrolo[2,3-b]pyridine-1-sulfonyl]-3-methyl-quinoline] | < 10 | < 10 | < 10
12 | CCOc1ccc2ccccc2c1C(=O)n1cc(-c2ccc(O)c(OC)c2)c2cccnc21 [Compound 123, (2-Ethoxy-naphthalen-1-yl)-[3-(4-hydroxy-3-methoxy-phenyl)-pyrrolo[2,3-b]pyridin-1-yl]-methanone] | < 10 | < 10 | –
13 | CCOC(=O)c1ccc(NC(=O)n2cc(-c3ccc(OC)c(OC)c3)c3cccnc32)cc1 [Compound 33, 4-[3-(3,4-Dimethoxy-phenyl)-pyrrolo[2,3-b]pyridine-1-carbonyl]-amino-benzoic acid ethyl ester] | < 10 | > 10 | < 10
14 | COc1ccc(-c2cnc3c(c2)c(C#Cc2ccccc2)cn3S(=O)(=O)c2ccccc2)cc1OC [Compound 136, 1-Benzenesulfonyl-5-(3,4-dimethoxy-phenyl)-3-phenylethynyl-1H-pyrrolo[2,3-b]pyridine] | < 10 | < 10 | –

Further lines, results first:

Row | IC50 [1] [µM] | IC50 [2] [µM] | IC50 [3] [µM] | SMILES
15 | < 10 | < 10 | < 10 | COc1ccc(-c2cn(S(=O)(=O)c3ccccc3)c3ccccc23)cc1OC1CCCC1 [Compound 99, 1-Benzenesulfonyl-3-(3-cyclopentyloxy-4-methoxy-phenyl)-1H-indole]
16 | < 10 | < 10 | – | CCOc1ccc2ccccc2c1C(=O)n1cc(-c2cccc(C(=O)OC)c2)c2cccnc21 [Compound 120, 3-[1-(2-Ethoxy-naphthalene-1-carbonyl)-1H-pyrrolo[2,3-b]pyridin-3-yl]-benzoic acid methyl ester]
17 | < 10 | < 10 | – | COc1ccc2c(c1)c(-c1ccc(OC)c(OC)c1)cn2S(=O)(=O)c1cccc2cc(C)cnc12 [Compound 94, 8-[3-(3,4-Dimethoxy-phenyl)-5-methoxy-indole-1-sulfonyl]-3-methyl-quinoline]
18 | < 10 | < 10 | < 10 | COc1ccc(CC(=O)n2cc(-c3ccc(OC)c(OC)c3)c3cccnc32)cc1 [Compound 60, 1-[3-(3,4-Dimethoxy-phenyl)-pyrrolo[2,3-b]pyridin-1-yl]-2-(4-methoxy-phenyl)-ethanone-amide]
19 | < 10 | < 10 | < 10 | CSc1nccc(-c2cn(S(=O)(=O)c3cccc4cccnc34)c3ncccc23)n1 [Compound 46, 8-[3-(2-Methylsulfanyl-pyrimidin-4-yl)-pyrrolo[2,3-b]pyridine-1-sulfonyl]-quinoline]
20 | < 10 | < 10 | < 10 | COc1ccc(-c2cn(S(=O)(=O)c3ccc(Oc4ccccc4)cc3)c3ncccc23)cc1OC [Compound 15, 3-(3,4-Dimethoxy-phenyl)-1-(4-phenoxy-benzenesulfonyl)-1H-pyrrolo[2,3-b]pyridine]
21 | < 10 | – | – | CCOC(=O)c1ccc(C#Cc2cn(S(=O)(=O)c3ccccc3)c3ncc(-c4ccc(OC)c(OC)c4)cc23)cc1 [Compound 135, 4-[1-Benzenesulfonyl-5-(3,4-dimethoxy-phenyl)-1H-pyrrolo[2,3-b]pyridin-3-ylethynyl]-benzoic acid ethyl ester]
22 | < 10 | < 10 | < 10 | COc1ncc(-c2cn(S(=O)(=O)Cc3ccccc3)c3ncccc23)cn1 [Compound 45, 3-(2-Methoxy-pyrimidin-5-yl)-1-phenylmethanesulfonyl-1H-pyrrolo[2,3-b]pyridine]
23 | < 10 | < 10 | < 10 | COc1ccc(-c2cn(S(=O)(=O)c3ccc(-c4ccccc4)cc3)c3ncccc23)cc1OC [Compound 10, 1-(Biphenyl-4-sulfonyl)-3-(3,4-dimethoxy-phenyl)-1H-pyrrolo[2,3-b]pyridine]
24 | < 10 | < 10 | < 10 | COc1ccc(-c2cn(C(=O)Nc3ccc(C(C)=O)cc3)c3ncccc23)cc1OC [Compound 40, 3-(3,4-Dimethoxy-phenyl)-pyrrolo[2,3-b]pyridine-1-carboxylic acid (4-acetyl-phenyl)-amide]
25 | < 10 | < 10 | – | COc1ccc(-c2cn(S(=O)(=O)c3ccccc3)c3ncccc23)cc1O [Compound 141, 5-(1-Benzenesulfonyl-1H-pyrrolo[2,3-b]pyridin-3-yl)-2-methoxy-phenol]
26 | < 10 | > 10 | < 10 | COc1ccc(NC(=O)n2cc(-c3ccc(OC)c(OC)c3)c3cccnc32)cc1 [Compound 39, 3-(3,4-Dimethoxy-phenyl)-pyrrolo[2,3-b]pyridine-1-carboxylic acid (4-methoxy-phenyl)-amide]
27 | < 10 | < 10 | – | COc1cc(-c2cn(S(=O)(=O)c3ccccc3)c3ncccc23)ccc1OCc1cc(-c2ccccc2)no1 [Compound 125, 1-Benzenesulfonyl-3-[3-methoxy-4-(3-phenyl-isoxazol-5-ylmethoxy)-phenyl]-1H-pyrrolo[2,3-b]pyridine]
28 | < 10 | < 10 | – | COC(=O)c1cccc(C#Cc2cn(S(=O)(=O)c3ccccc3)c3ncc(-c4ccc(OC)c(OC)c4)cc23)c1 [Compound 137, 3-[1-Benzenesulfonyl-5-(3,4-dimethoxy-phenyl)-1H-pyrrolo[2,3-b]pyridin-3-ylethynyl]-benzoic acid methyl ester]

From patent US7605168B2 (Plexxikon, Inc., priority 2004, dated 2009)
